Data reported in US20240197823A1, “CATIONIC ANTIMICROBIAL PEPTIDES AND USES THEREOF” (priority 2021, published 2024).
≈ marks a conversion by molar mass, not a printed value. Where two headings read alike, the source gives them in different places. Positions of bridges follow the written chain, without caps; N, C: chain ends. Non-standard residues stand in square brackets, D forms with d. Residues, ends and D or L forms follow the SMILES beside them. *: point of attachment. Heptanoyl(5-Me) = CCC(C)CCCC(=O)*; Dab = NCC[C@H](N)C(=O)O

Columns and labels:
[1] = test system: E. Faecium; assay: MIC growth inhibition assay in MHB2; type: cell-based, Enterococcus faecium
Procedure: (§1) Bacteria. Bacterial clinical isolates, used for initial screening and in previous studies [Greber K E et al., 2017], were anonymously provided by the clinical microbiology laboratory of the University of Pittsburgh medical Center. The panel used for secondary screening was from CDC (Table 4), with resistance profiles data. Bacteria are stored in lock-secured −80° C. freezer and typically retrieved by obtaining single colonies on agar plates prior for subsequent liquid broth cultures. Suspensions of test bacteria were prepared from log phase of growth by diluting overnight cultures at 1:100 with fresh cation-adjusted MHB (MHB2, Millipore Sigma, USA) and incubating for additional 3-4 hours. Bacteria were spun at 3000×g for 10 minutes and the pellet resuspended in test condition media (Millipore Sigma, USA) to determine bacterial turbidity using a Den-1B densitometer (Grant Instruments, USA) at 0.5 McFarland (unit of bacterial density) corresponding to […].
(§2) Antibacterial assays. To examine antibacterial activity, this study used minor modifications of a standard growth inhibition assay endorsed by the Clinical and Laboratory Standards Institute (CLSI), as previously described [Greber K E et al., 2017]. Bacteria were incubated with each of the indicated peptides in MHB2. The bacterial cells were kept in an incubator for 18 hours at 37° C., which is linked to a robotic system that feeds a plate reader every hour with one of 8×96-well plates. This set-up allows the collection of growth kinetic data at A 570 (absorbance at 570 nm) to examine growth inhibition in real time (BioTek Instruments, USA). […] To assess bactericidal properties of the peptide, the assay was modified by using 15% fetal bovine serum (FBS, for a more physiologically relevant test condition) mixed with 25% MHB2 and 60% PBS. Bacterial cells (colony forming unit/mL or CFU/mL) were enumerated after incubating treated bacteria for 3 hours and plating serially diluted samples on broth agar medium at 37° C. overnight. […] For killing kinetics, we slightly modified the bactericidal assay to examine bacterial killing at the MBC (or 2×MBC) as a function of time for up to 3 hours. Data were analyzed using GraphPad Prism software.

[2] = test system: S. aureus; assay: MIC growth inhibition assay in MHB2; type: cell-based, Staphylococcus aureus
Procedure: as §1, §2

[3] = test system: MDR panel of gram-negative (GNB) and -positive (GPB) bacterial isolates classified as ESKAPE pathogens
Procedure: as §1
Antibacterial assays. To examine antibacterial activity, this study used minor modifications of a standard growth inhibition assay endorsed by the Clinical and Laboratory Standards Institute (CLSI), as previously described [Greber K E et al., 2017]. Bacteria were incubated with each of the indicated peptides in MHB2. The bacterial cells were kept in an incubator for 18 hours at 37° C., which is linked to a robotic system that feeds a plate reader every hour with one of 8×96-well plates. This set-up allows the collection of growth kinetic data at A 570 (absorbance at 570 nm) to examine growth inhibition in real time (BioTek Instruments, USA). […] To assess bactericidal properties of the peptide, the assay was modified by using 15% fetal bovine serum (FBS, for a more physiologically relevant test condition) mixed with 25% MHB2 and 60% PBS. Bacterial cells (colony forming unit/mL or CFU/mL) were enumerated after incubating treated bacteria for 3 hours and plating serially diluted samples on broth agar medium at 37° C. overnight. […] Data were analyzed using GraphPad Prism software.

[4] = test system: K. pneumoniae; assay: MIC growth inhibition assay in MHB2; type: cell-based, klebsiella pneumoniae
Procedure: as §1, §2

[5] = test system: E. coli; assay: microbe, parasite or virus in culture
Procedure: as §1, §2

[6] = test system: A. baumannii; assay: microbe, parasite or virus in culture
Procedure: as §1, §2

[7] = test system: P. aeruginosa; assay: microbe, parasite or virus in culture; conditions: Pseudomonas aeruginosa, MHB2
Procedure: as §1, §2

[8] = test system: Enterobacter spp; assay: MIC growth inhibition assay in MHB2; type: cell-based, Enterobacter spp: EA (aerogenes), EC (cloacae)
Procedure: as §1, §2

Cc1nnc(SCC2=C(C(=O)O)N3C(=O)[C@@H](NC(=O)Cn4cnnn4)[C@H]3SC2)s1 [Cefa]
MIC ([1]; strain EF23614): >16 µM | MIC ([1]; strain EF24670): >16 µM | MIC ([1]; strain EF26215): 4 µM (≈ 1.82 µg/mL) | MIC ([1]; strain EF26692): 4 µM (≈ 1.82 µg/mL) | MIC ([2]; strain SA12212): 16 µM (≈ 7.27 µg/mL) | MIC ([2]; strain SA18710): 16 µM (≈ 7.27 µg/mL) | MIC ([2]; strain SA49775): 2 µM (≈ 0.909 µg/mL) | MIC ([2]; strain SA-US300): 8 µM (≈ 3.64 µg/mL)

CCC(C)CCCC(=O)N[C@@H](CCN)C(=O)N[C@H](C(=O)N[C@@H](CCN)C(=O)N[C@H]1CCNC(=O)[C@H]([C@@H](C)O)NC(=O)[C@H](CCN)NC(=O)[C@H](CCN)NC(=O)[C@H](CC(C)C)NC(=O)[C@@H](CC(C)C)NC(=O)[C@H](CCN)NC1=O)[C@@H](C)O (stereo partly drawn) [Colistin, colistin, reference compound] ({Heptanoyl(5-Me)}-[Dab]T[Dab][Dab][Dab][dL]L[Dab][Dab]T; lactam 4-C)
mean MIC ([3]; GNB and GPB of the initial MDR panel, MHB2): lowest mean MIC | activity against the GPB strains ([3]; GPB strains of the initial MDR panel (Table 5)): inactive | MIC ([4]; Klebsiella pneumoniae, colistin-resistant CDC AR isolate KP46, read-out: MIC): 4 µM (≈ 4.62 µg/mL) | MIC ([4]; Klebsiella pneumoniae, colistin-resistant CDC AR isolate KP87, read-out: MIC): > 16 µM | MIC ([4]; Klebsiella pneumoniae, colistin-resistant CDC AR isolate KP125, read-out: MIC): 8 µM (≈ 9.24 µg/mL) | MIC ([4]; Klebsiella pneumoniae, colistin-resistant CDC AR isolate KP507, read-out: MIC): 16 µM (≈ 18.5 µg/mL) | MIC ([4]; Klebsiella pneumoniae, colistin-resistant CDC AR isolate KP1010, read-out: MIC): 16 µM (≈ 18.5 µg/mL) | MIC ([4]; Klebsiella pneumoniae, colistin-resistant CDC AR isolate KP1041, read-out: MIC): > 16 µM | MIC ([4]; Klebsiella pneumoniae, colistin-resistant CDC AR isolate KP1045, read-out: MIC): > 16 µM | MIC ([4]; Klebsiella pneumoniae, strain KP542, CDC, MHB2, read-out: MIC): > 16 µM | MIC ([4]; Klebsiella pneumoniae, strain KP548, CDC, MHB2, read-out: MIC): 0.25 µM (≈ 0.289 µg/mL) | MIC ([4]; Klebsiella pneumoniae, strain KP550, CDC, MHB2, read-out: MIC): 0.25 µM (≈ 0.289 µg/mL) | MIC ([4]; Klebsiella pneumoniae, strain KP552, CDC, MHB2, read-out: MIC): 0.25 µM (≈ 0.289 µg/mL) | MIC ([4]; strain KPA5, initial MDR panel (Table 5)): colistin-resistant phenotype | MIC ([1]; Enterococcus faecium, strain EF673, CDC, MHB2): > 16 µM | MIC ([1]; strain EF500, CDC, MHB2): >16 µM | MIC ([1]; strain EF671, CDC, MHB2): >16 µM | MIC ([1]; strain EF672, CDC, MHB2): >16 µM | MIC ([5]; Escherichia coli, strain Eco541, CDC, MHB2): 1 µM (≈ 1.16 µg/mL) | MIC ([5]; Escherichia coli, strain Eco543, CDC, MHB2): 8 µM (≈ 9.24 µg/mL) | MIC ([5]; Escherichia coli, strain Eco546, CDC, MHB2): 0.25 µM (≈ 0.289 µg/mL) | MIC ([5]; Escherichia coli, strain Eco549, CDC, MHB2): 1 µM (≈ 1.16 µg/mL) | MIC ([6]; Acinetobacter baumannii, CDC AR isolate AB288 (colistin resistance not confirmed)): 1 µM (≈ 1.16 µg/mL) | MIC ([6]; Acinetobacter baumannii, CDC AR isolate AB300 (colistin resistance not confirmed)): 1 µM (≈ 1.16 µg/mL) | MIC ([6]; Acinetobacter baumannii, CDC AR isolate AB301 (colistin resistance not confirmed)): 1 µM (≈ 1.16 µg/mL) | MIC ([6]; Acinetobacter baumannii, CDC AR isolate AB303 (colistin resistance not confirmed)): 0.5 µM (≈ 0.578 µg/mL) | MIC ([6]; Acinetobacter baumannii, strain AB273, CDC, MHB2): 0.5 µM (≈ 0.578 µg/mL) | MIC ([6]; Acinetobacter baumannii, strain AB274, CDC, MHB2): 0.25 µM (≈ 0.289 µg/mL) | MIC ([6]; Acinetobacter baumannii, strain AB275 (first line r9), CDC, MHB2): 0.25 µM (≈ 0.289 µg/mL) | MIC ([6]; Acinetobacter baumannii, strain AB275 (second line r10), CDC, MHB2): 0.5 µM (≈ 0.578 µg/mL) | MIC ([7]; strain PA216, CDC): 1 µM (≈ 1.16 µg/mL) | MIC ([7]; strain PA229, CDC): > 16 µM | MIC ([7]; strain PA230, CDC): 1 µM (≈ 1.16 µg/mL) | MIC ([7]; strain PA231, CDC): 1 µM (≈ 1.16 µg/mL) | MIC ([8]; Enterobacter, strain EA62 (aerogenes), CDC, MHB2): 2 µM (≈ 2.31 µg/mL) | MIC ([8]; Enterobacter, strain EA547 (aerogenes), CDC, MHB2): 0.25 µM (≈ 0.289 µg/mL) | MIC ([8]; Enterobacter, strain EC544 (cloacae), CDC, MHB2): 4 µM (≈ 4.62 µg/mL) | MIC ([8]; Enterobacter, strain EC545 (cloacae), CDC, MHB2): 2 µM (≈ 2.31 µg/mL) | MIC ([2]; Staphylococcus aureus, strain SA461, CDC, MHB2): > 16 µM | MIC ([2]; strain SA462, CDC, MHB2): >16 µM | MIC ([2]; strain SA463, CDC, MHB2): >16 µM | MIC ([2]; strain SA561, CDC, MHB2): >16 µM

C[C@@H](O)[C@H]1C(=O)N2C(C(=O)O)=C(S[C@@H]3CN[C@H](C(=O)N(C)C)C3)[C@H](C)[C@H]12 [Mero]
MIC ([4]; strain KP43816, read-out: MIC): 1 µM (≈ 0.383 µg/mL) | MIC ([4]; strain KPA5, read-out: MIC): 2 µM (≈ 0.767 µg/mL) | MIC ([4]; strain KPB3, read-out: MIC): 2 µM (≈ 0.767 µg/mL) | MIC ([4]; strain KPC3, read-out: MIC): 1 µM (≈ 0.383 µg/mL) | MIC ([5]; strain Eco25922): 0.5 µM (≈ 0.192 µg/mL) | MIC ([5]; strain YDC107): 1 µM (≈ 0.383 µg/mL) | MIC ([5]; strain YDC337): 8 µM (≈ 3.07 µg/mL) | MIC ([5]; strain YDC748): 8 µM (≈ 3.07 µg/mL) | MIC ([6]; strain AB-A2): 4 µM (≈ 1.53 µg/mL) | MIC ([6]; strain AB-A3): >16 µM | MIC ([6]; strain AB-F8): 8 µM (≈ 3.07 µg/mL) | MIC ([6]; strain AB-F9): 8 µM (≈ 3.07 µg/mL) | MIC ([8]; strain EA518 (aerogenes)): >16 µM | MIC ([8]; strain EA596 (aerogenes)): 16 µM (≈ 6.14 µg/mL) | MIC ([8]; strain EC470 (cloacae)): >16 µM | MIC ([8]; strain EC560 (cloacae)): 16 µM (≈ 6.14 µg/mL)
